Assay results taken from ChEMBL document CHEMBL1201862, “PubChem BioAssay data set” (2004).
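Dose response: 5 concentrations. Exposure: 48 h. Format: 96-well plates. Endpoint: linear interpolation; highest concentration if not reached. GI50 = concentration required for 50% inhibition of growth.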 Active and inactive are the calls of the source. Rule as the data show it: active = GI50 up to about 1.1 µM and inactive = higher.

Experiments:
Assay in all cases: growth of human tumour cells (NCI), 48 h
TK-10 = test system: TK-10
A498 = test system: A498
A549 = test system: A549
MDA-MB-435 = test system: MDA-MB-435
UO-31 = test system: UO-31
MDA-MB-231 = test system: MDA-MB-231
CAKI-1 = test system: CAKI-1
UACC-257 = test system: UACC-257
HL-60 = test system: HL-60
U-251 = test system: U-251
CCRF-CEM = test system: CCRF-CEM
IGROV-1 = test system: IGROV-1
MOLT-4 = test system: MOLT-4
SF-539 = test system: SF-539
OVCAR-8 = test system: OVCAR-8
LOX IMVI = test system: LOX IMVI
K562 = test system: K562
SK-OV-3 = test system: SK-OV-3
UACC-62 = test system: UACC-62
T47D = test system: T47D

Compound | GI50 (TK-10) | GI50 (A498) | GI50 (A549) | GI50 (MDA-MB-435) | GI50 (UO-31) | GI50 (MDA-MB-231) | GI50 (CAKI-1) | GI50 (UACC-257) | GI50 (HL-60) | GI50 (U-251) | GI50 (CCRF-CEM) | GI50 (IGROV-1) | GI50 (MOLT-4) | GI50 (SF-539) | GI50 (OVCAR-8) | GI50 (LOX IMVI) | GI50 (K562) | GI50 (SK-OV-3) | GI50 (UACC-62) | GI50 (T47D)
c1ccc(/N=C2\SC(c3ccccc3)CN2C23CC4CC(CC(C4)C2)C3)cc1 (stereo not drawn) | > 100 µM (inactive) | > 100 µM (inactive) | > 100 µM (inactive) | > 100 µM (inactive) | > 100 µM (inactive) | > 100 µM (inactive) | > 100 µM (inactive) | > 100 µM (inactive) | > 100 µM (inactive) | > 100 µM (inactive) | > 100 µM (inactive) | > 100 µM (inactive) | > 100 µM (inactive) | > 100 µM (inactive) | > 100 µM (inactive) | > 100 µM (inactive) | > 100 µM (inactive) | – | – | –
O=C1CCC(c2ccccc2)C(O)(C(=O)O)C1 (stereo not drawn) | > 100 µM (inactive) | > 100 µM (inactive) | > 100 µM (inactive) | – | > 100 µM (inactive) | – | > 100 µM (inactive) | > 100 µM (inactive) | > 100 µM (inactive) | > 100 µM (inactive) | > 100 µM (inactive) | > 100 µM (inactive) | > 100 µM (inactive) | > 100 µM (inactive) | > 100 µM (inactive) | > 100 µM (inactive) | > 100 µM (inactive) | > 100 µM (inactive) | > 100 µM (inactive) | –
Cc1cn(C2CC(N=[N+]=[N-])C(C(=O)O)O2)c(=O)[nH]c1=O (stereo not drawn) | > 100 µM (inactive) | > 100 µM (inactive) | > 100 µM (inactive) | > 100 µM (inactive) | > 100 µM (inactive) | > 100 µM (inactive) | > 100 µM (inactive) | > 100 µM (inactive) | > 100 µM (inactive) | > 100 µM (inactive) | > 100 µM (inactive) | > 100 µM (inactive) | > 100 µM (inactive) | > 100 µM (inactive) | > 100 µM (inactive) | – | > 100 µM (inactive) | > 100 µM (inactive) | > 100 µM (inactive) | –
O=C(Nc1cccc(Cc2cccc(NC(=O)c3ccccc3)c2)c1)c1ccccc1 | > 100 µM (inactive) | 17.8 µM (inactive) | 24.8 µM (inactive) | – | 12.7 µM (inactive) | – | 16.9 µM (inactive) | 29.8 µM (inactive) | > 100 µM (inactive) | 20.1 µM (inactive) | > 100 µM (inactive) | 47.8 µM (inactive) | > 100 µM (inactive) | 12.6 µM (inactive) | 19.5 µM (inactive) | > 100 µM (inactive) | > 100 µM (inactive) | 25.8 µM (inactive) | 23.8 µM (inactive) | –
COc1ccc(/C=C/C(=O)CCN2CCN(CCC(=O)/C=C/c3ccc(OC)cc3)CC2)cc1 | 14.9 µM (inactive) | < 0.01 µM (active) | 20.9 µM (inactive) | 9.35 µM (inactive) | 14.6 µM (inactive) | 12.6 µM (inactive) | 13.5 µM (inactive) | 14.8 µM (inactive) | 4.61 µM (inactive) | 12.1 µM (inactive) | – | 11.5 µM (inactive) | 6.87 µM (inactive) | 6.17 µM (inactive) | 20.8 µM (inactive) | 3.49 µM (inactive) | 5.22 µM (inactive) | 11.8 µM (inactive) | 13.4 µM (inactive) | –
COC(=O)c1c(O)ccc2c1c1c(n2Cc2ccccn2)C(=O)c2ccccc2C1 | > 100 µM (inactive) | > 100 µM (inactive) | 66.1 µM (inactive) | 86.5 µM (inactive) | 54.5 µM (inactive) | > 100 µM (inactive) | 19.1 µM (inactive) | 82.8 µM (inactive) | > 100 µM (inactive) | > 100 µM (inactive) | 27.9 µM (inactive) | 71 µM (inactive) | 95.1 µM (inactive) | 87.9 µM (inactive) | > 100 µM (inactive) | > 100 µM (inactive) | > 100 µM (inactive) | 96.2 µM (inactive) | > 100 µM (inactive) | –
COc1cc(N(Cc2ccc3nc(OC)c(OC)nc3c2)Cc2ccc3nc(OC)c(OC)nc3c2)cc(OC)c1OC | 30.8 µM (inactive) | – | > 50 µM (inactive) | > 50 µM (inactive) | 31.5 µM (inactive) | – | > 50 µM (inactive) | > 50 µM (inactive) | > 50 µM (inactive) | 19.8 µM (inactive) | – | – | > 50 µM (inactive) | 26.3 µM (inactive) | > 50 µM (inactive) | > 50 µM (inactive) | – | 29.1 µM (inactive) | > 50 µM (inactive) | > 50 µM (inactive)
N#CC1=C(O)NC(O)=C(C#N)C1c1ccc(C2C(C#N)=C(O)NC(O)=C2C#N)cc1 | > 100 µM (inactive) | > 100 µM (inactive) | 58.9 µM (inactive) | – | > 100 µM (inactive) | – | > 100 µM (inactive) | > 100 µM (inactive) | 28.3 µM (inactive) | > 100 µM (inactive) | 45.3 µM (inactive) | > 100 µM (inactive) | 94.6 µM (inactive) | > 100 µM (inactive) | > 100 µM (inactive) | 35.2 µM (inactive) | 53.2 µM (inactive) | > 100 µM (inactive) | > 100 µM (inactive) | –
O=C1CCC[C@]2(CCCC(=O)N2)C1 | > 100 µM (inactive) | > 100 µM (inactive) | > 100 µM (inactive) | – | > 100 µM (inactive) | – | > 100 µM (inactive) | > 100 µM (inactive) | > 100 µM (inactive) | > 100 µM (inactive) | > 100 µM (inactive) | > 100 µM (inactive) | > 100 µM (inactive) | > 100 µM (inactive) | > 100 µM (inactive) | > 100 µM (inactive) | > 100 µM (inactive) | > 100 µM (inactive) | > 100 µM (inactive) | –
COc1ccc(NC(=S)c2ccc(CN3CCCCC3)s2)cc1 | – | 16.2 µM (inactive) | 20.3 µM (inactive) | 19.6 µM (inactive) | 18.4 µM (inactive) | – | 27.9 µM (inactive) | 16.6 µM (inactive) | 14.3 µM (inactive) | 17.1 µM (inactive) | 14.8 µM (inactive) | 22.8 µM (inactive) | 20.1 µM (inactive) | 43.9 µM (inactive) | 17.9 µM (inactive) | 18.1 µM (inactive) | 12.5 µM (inactive) | 16.4 µM (inactive) | 17.1 µM (inactive) | 19.8 µM (inactive)
CC1=C(N2CC2)C(=O)c2nc3n(c2C1=O)CCC3O (stereo not drawn) | 0.09 µM (active) | 0.205 µM (active) | 0.215 µM (active) | 0.0188 µM (active) | 0.388 µM (active) | – | 0.275 µM (active) | 0.226 µM (active) | 0.566 µM (active) | 0.157 µM (active) | 1.36 µM (inactive) | 0.461 µM (active) | 0.912 µM (active) | 0.254 µM (active) | 0.201 µM (active) | 0.619 µM (active) | 0.472 µM (active) | 0.249 µM (active) | 0.168 µM (active) | 0.395 µM (active)
COc1ccc(/C=C2\CN(C)CC3C2=NN(c2ccccc2)C3c2ccc(OC)cc2)cc1 (stereo not drawn) | 26.1 µM (inactive) | 33.8 µM (inactive) | > 100 µM (inactive) | > 100 µM (inactive) | > 100 µM (inactive) | – | 60 µM (inactive) | > 100 µM (inactive) | – | – | > 100 µM (inactive) | > 100 µM (inactive) | > 100 µM (inactive) | – | 67.5 µM (inactive) | > 100 µM (inactive) | > 100 µM (inactive) | 16.6 µM (inactive) | 75 µM (inactive) | > 100 µM (inactive)
